From publication PMC2863073 (Glia, 2008)

Tested on: oligodendrocyte NMDA receptor (NR1-containing; probably NR1, NR2C and NR3)
Test: whole-cell patch clamp of NMDA-evoked current, […] min memantine pre-exposure
Type: cell-based, Rattus norvegicus

- IC50: 54 µM
SMILES: CC12CC3CC(C)(C1)CC(N)(C3)C2 [memantine]
